Experimental data published in patent publication US20230159527A1, “COMPOUNDS AS BCL-2 INHIBITORS” (Fochon Pharmaceuticals, Ltd., priority 2020, published 2023).

What was measured:
Assay type in all cases: cell-based
Toledo cells = experiment: Cell proliferation assay, Toledo cells (MTS, 72 h); settings: Homo sapiens, Toledo cells, MTS, read-out: Toledo IC50
How it was run: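 Toledo cells (30000/well, RPMI-1640 with 10% FBS) were preincubated for 4 h. They were then exposed to nine compound concentrations from 10000 to 1.5 nM for 72 h at 37 °C, 5% CO2. MTS was added for 2 h and absorbance read at 490 nm to give IC50.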

DoHH2 cells = experiment: Cell proliferation assay, DoHH2 cells (MTS, 120 h); settings: Homo sapiens, DOHH-2
How it was run: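 DoHH2 cells in RPMI-1640 with 10% FBS were plated at 5000/well and rested 4 h. They were then exposed to compound at nine final concentrations (10000 to 1.5 nM) for 120 h at 37 °C. Viability was read by MTS (2 h, A490) and IC50 derived by curve fitting.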

RS4;11 cells = experiment: Cell proliferation assay, RS4;11 cells (MTS, 72 h); settings: Homo sapiens, RS4;11 cell proliferation
Experimental: MTS testing kit was purchased from Promega. The RPMI-1640, Fetal bovine serum and Penicillin-Streptomycin were purchased from Gibco. Dimethyl sulfoxide (DMSO) was purchased from Sigma.
To investigate whether a compound is able to inhibit the activity of Bcl-2 in cells, a mechanism-based assay using RS4;11 (ATCC® CRL-1873™) cell was developed. In this assay, inhibition of Bcl-2 was detected by the inhibition of RS4;11 cells proliferation. RS4;11 cells were cultured in culture flasks to 40-80% confluence in RPMI-1640 plus 10% fetal bovine serum. Cells were collected and plated onto 96-well plates at desired cell density (30000 cells/well). Plates were incubated overnight at 37° C., with 5% CO2 to adhere. Compounds were added to the plates, and the final compound concentrations were 10000, 3333, 1111, […], 41, 14, 4.6 and 1.5 nM. Plates plated with RS4;11 cells were placed at 37° C., with 5% CO2 for 72 h. 20 μl MTS/100 μl medium mixture solution were added to each well and incubate the plates for exactly 2 hours. The reaction was stopped by adding 25 μl 10% SDS per well. Measure absorbance at 490 nm and 650 nm (reference wavelength). IC50 was calculated using GraphPad Prism 5.0.

| IC50 (RS4;11 cells) | SMILES | IC50 (Toledo cells) | IC50 (DoHH2 cells) |
| --- | --- | --- | --- |
| ≤ 1 nM | CC(C)c1ccccc1C1COCCN1C1CC2(CCN(c3ccc(C(=O)NS(=O)(=O)c4cnc(NCC5CCOCC5)c([N+](=O)[O-])c4)c(Oc4cnc5[nH]ccc5c4)c3)CC2)C1 (single isomer, unassigned) [Example A-55a, (R or S)-2-((1H-pyrrolo[2,3-b]pyridin-5-yl)oxy)-4-(2-(3-(2-isopropyl-phenyl)morpholino)-7-azaspiro[3.5]nonan-7-yl)-N-((5-nitro-6-(((tetra-hydro-2H-pyran-4-yl)methyl)amino)pyridin-3-yl)sulfonyl)benzamide] | 5 nM | ≤ 1 nM |
| ≤ 1 nM | CC(C)c1ccccc1[C@@H]1COCCN1C1CC2(CCN(c3ccc(C(=O)NS(=O)(=O)c4cnc(NC[C@H]5CC[C@@](C)(O)CC5)c([N+](=O)[O-])c4)c(Oc4cnc5[nH]ccc5c4)c3)CC2)C1 (single isomer, unassigned) [Example A-56a, 2-((1H-pyrrolo[2,3-b]pyridin-5-yl)oxy)-N-((6-((((1s,4s)-4-hydroxy-4-methylcyclohexyl)methyl)amino)-5-nitropyridin-3-yl)sulfonyl)-4-(2-((R or S)-3-(2-isopropylphenyl)morpho-lino)-7-azaspiro[3.5]nonan-7-yl) benzamide] | 1 nM | ≤ 1 nM |
| ≤ 1 nM | CC(C)c1ccccc1[C@@H]1COCCN1C1CC2(CCN(c3ccc(C(=O)NS(=O)(=O)c4cnc(NC[C@H]5CC[C@](C)(O)CC5)c([N+](=O)[O-])c4)c(Oc4cnc5[nH]ccc5c4)c3)CC2)C1 (single isomer, unassigned) [Example A-56b, 2-((1H-pyrrolo[2,3-b]pyridin-5-yl)oxy)-N-((6-((((1r,4r)-4-hydroxy-4-methylcyclohexyl)methyl)amino)-5-nitropyridin-3-yl)sulfonyl)-4-(2-((R or S)-3-(2-isopropylphenyl)morpho-lino)-7-azaspiro[3.5]nonan-7-yl) benzamide] | 1 nM | ≤ 1 nM |
| ≤ 1 nM | O=C(NS(=O)(=O)c1cnc(NCC2C3COCC23)c([N+](=O)[O-])c1)c1ccc(N2CCC3(CC2)CC(N2CCC4C[C@]42c2ccccc2C2CC2)C3)cc1Oc1cnc2[nH]ccc2c1 (single isomer, unassigned) [Example A-97b, 2-((1H-pyrrolo[2,3-b]pyridin-5-yl)oxy)-N-((6-(((3-oxabicyclo[3.1.0]hexan-6-yl)methyl)amino)-5-nitro-pyridin-3-yl)sulfonyl)-4-(2-((1R or 1S)-1-(2-cyclopropylphenyl)-2-aza-bicyclo[3.1.0]hexan-2-yl)-7-azaspiro [3.5]nonan-7-yl)benzamide] | 6 nM | ≤ 1 nM |
| ≤ 1 nM | Cc1nc(NC[C@H]2CC[C@](C)(O)CC2)c([N+](=O)[O-])cc1S(=O)(=O)NC(=O)c1ccc(N2CCC3(CC2)CC(N2CCC[C@H]2c2ccccc2C(C)C)C3)cc1Oc1cnc2[nH]ccc2c1 (single isomer, unassigned) [Example A-121, 2-((1H-pyrrolo[2,3-b]pyridin-5-yl)oxy)-N-((6-((((1r,4r)-4-hydroxy-4-methylcyclohexyl)methyl)amino)-2-methyl-5-nitropyridin-3-yl)sulfonyl)-4-(2-((R or S)-2-(2-isopropylphenyl)pyrrolidin-1-yl)-7-azaspiro[3.5]nonan-7-yl) benzamide] | 1 nM | ≤ 1 nM |
| ≤ 1 nM | CC(C)c1ccccc1[C@H]1CCCN1C1CC2(CCN(c3ccc(C(=O)NS(=O)(=O)c4cc([N+](=O)[O-])c5c(n4)OC[C@H](Cc4ccccc4)N5)c(Oc4cnc5[nH]ccc5c4)c3)CC2)C1 [Example B-3b, 2-((1H-pyrrolo[2,3-b]pyridin-5-yl)oxy)-N-(((S)-2-benzyl-8-nitro-2,3-dihydro-1H-pyrido[2,3-b][1,4]oxazin-6-yl)sulfonyl)-4-(2-((R)-2-(2-isopropylphenyl)pyrrolidin-1-yl)-7-azaspiro[3.5]nonan-7-yl) benzamide] |  | ≤ 1 nM |
| ≤ 1 nM | CC(C)c1ccccc1[C@H]1CCCN1C1CC2(CCN(c3ccc(C(=O)NS(=O)(=O)c4cc([N+](=O)[O-])c(NCC5CCOCC5)cn4)c(Oc4cnc5[nH]ccc5c4)c3)CC2)C1 [Example B-4b, (R)-2-((1H-pyrrolo[2,3-b]pyridin-5-yl)oxy)-4-(2-(2-(2-isopropylphenyl)pyrrolidin-1-yl)-7-azaspiro [3.5]nonan-7-yl)-N-((4-nitro-5-(((tetrahydro-2H-pyran-4-yl)methyl)amino)pyridin-2-yl)sulfonyl) benzamide] |  | ≤ 1 nM |

The next lines start with the compound.

| SMILES | IC50 (RS4;11 cells) | IC50 (Toledo cells) | IC50 (DoHH2 cells) |
| --- | --- | --- | --- |
| CC1(O)CCC(CNc2ncc(S(=O)(=O)NC(=O)c3ccc(N4CCC5(CC4)CC(N4CCOC[C@H]4c4ccccc4C4CC4)C5)cc3Oc3cnc4[nH]ccc4c3)cc2[N+](=O)[O-])CC1 (single isomer, unassigned) [Example A-34, (R or S)-2-((1H-pyrrolo[2,3-b]pyridin-5-yl)oxy)-4-(2-(3-(2-cyclopropylphenyl)morpholino)-7-azaspiro[3.5]nonan-7-yl)-N-((6-(((4-hydroxy-4-methylcyclohexyl)methyl)amino)-5-nitropyridin-3-yl)sulfonyl) benzamide] | ≤ 1 nM | 7 nM | ≤ 1 nM |
| CN1CCN(C2CC3(CCN(c4ccc(C(=O)NS(=O)(=O)c5cnc(NCC6CCOCC6)c([N+](=O)[O-])c5)c(Oc5cnc6[nH]ccc6c5)c4)CC3)C2)[C@H](c2ccccc2C2CC2)C1 (single isomer, unassigned) [Example A-39a, (R or S)-2-((1H-pyrrolo[2,3-b]pyridin-5-yl)oxy)-4-(2-(2-(2-cyclopropyl-phenyl)-4-methylpiperazin-1-yl)-7-azaspiro[3.5]nonan-7-yl)-N-((5-nitro-6-(((tetrahydro-2H-pyran-4-yl)methyl)amino)pyridin-3-yl)sulfonyl) benzamide] | ≤ 1 nM | 1 nM | ≤ 1 nM |
| CN1CCN(C2CC3(CCN(c4ccc(C(=O)NS(=O)(=O)c5cnc(NC[C@H]6CC[C@](C)(O)CC6)c([N+](=O)[O-])c5)c(Oc5cnc6[nH]ccc6c5)c4)CC3)C2)[C@H](c2ccccc2C2CC2)C1 (single isomer, unassigned) [Example A-40, 2-((1H-pyrrolo[2,3-b]pyridin-5-yl)oxy)-4-(2-((R or S)-2-(2-cyclopropylphenyl)-4-methylpiperazin-1-yl)-7-azaspiro[3.5]nonan-7-yl)-N-((6-((((1r,4r)-4-hydroxy-4-methylcyclohexyl)methyl)amino)-5-nitropyridin-3-yl)sulfonyl)benzamide] | ≤ 1 nM | 1 nM | ≤ 1 nM |
| CC(C)c1ccccc1C1COCCN1C1CC2(CCN(c3ccc(C(=O)NS(=O)(=O)c4cnc(NCC5(C#N)CCOCC5)c([N+](=O)[O-])c4)c(Oc4cnc5[nH]ccc5c4)c3)CC2)C1 (single isomer, unassigned) [Example A-142, (R or S)-2-((1H-pyrrolo[2,3-b]pyridin-5-yl)oxy)-N-((6-(((4-cyanotetrahydro-2H-pyran-4-yl)methyl)amino)-5-nitro-pyridin-3-yl)sulfonyl)-4-(2-(3-(2-iso-propylphenyl)morpholino)-7-azaspiro [3.5]nonan-7-yl)benzamide] | ≤ 1 nM | 9 nM | ≤ 1 nM |
